Results reported in patent publication US20250177399A1, “COMBINATION THERAPIES” (MIRATI THERAPEUTICS, INC., priority 2021, published 2025).
Where two headings read alike, the source gives them in different places.

What was measured:
H2122 tumors [1] = assay: H2122 tumor model, Compound 478 and RO5126766 alone and in combination; assay type: in vivo, nude/nude mice; conditions: Compound 478 100 mg/kg p.o daily, RO5126766 0.3 mg/kg p.o Q2D; for tumor growth inhibition: H2122 tumors, at Day 21
Description: (§1) Immunocompromised nude/nude mice were inoculated in the right hind flank with cells or patient derived tumor samples harboring a KRas G12C mutation. When tumor volumes reach between 200-400 mm^3 in size, the mice were divided into four groups of 5-12 mice each. The first group was administered vehicle only. […] The fourth group was orally administered the single agent dose of the KRas G12C inhibitor in combination with the single agent dose of the MEK inhibitor at the matched schedule. […] Tumor volumes were measured using a caliper every two-three days and tumor volumes are calculated by the formula: 0.5×(Length×Width)2.

LU99 tumors = assay: LU99 tumor model, Compound 478 and RO5126766 alone and in combination; assay type: in vivo, nude/nude mice; conditions: for Average Tumor Volumes of LU99 Tumor Bearing Mice: p.o. daily, Compound 478 30 mg/kg
Description: as §1

SW1573 tumors = assay: SW1573 tumor model, Compound 478 and RO5126766 alone and in combination; assay type: in vivo, nude/nude mice; conditions: Compound 478 100 mg/kg p.o daily, RO5126766 0.3 mg/kg p.o Q2D; for tumor growth inhibition: SW1573 tumors, at Day 20
Description: as §1

H2122 tumors [2] = conditions: for Average Tumor Volumes of H2122 Tumor Bearing Mice: Compound 478 100 mg/kg, trametinib 1 mg/kg
Description: Immunocompromised nude/nude mice were inoculated in the right hind flank with cells or patient derived tumor samples harboring a KRas G12C mutation. When tumor volumes reach between 200-400 mm^3 in size, the mice were divided into four groups of 5-12 mice each. The first group was administered vehicle only. […] The fourth group was orally administered the single agent dose of the KRas G12C inhibitor in combination with the single agent dose of the MEK inhibitor at the matched schedule. […] Tumor volumes were measured using a caliper every two-three days and tumor volumes are calculated by the formula: […].
For example, twenty nude/nude mice were inoculated in the right hind limb with 5×10^6 H2122 cells.

[3] = Study Day 1, RO5126766 0.3 mg/kg
[4] = Study Day 4, RO5126766 0.3 mg/kg
[5] = Study Day 9, RO5126766 0.3 mg/kg
[6] = Study Day 12, RO5126766 0.3 mg/kg
[7] = Study Day 15, RO5126766 0.3 mg/kg
[8] = Study Day 18, RO5126766 0.3 mg/kg

SMILES | tumor growth inhibition (H2122 tumors [1]) [%] | Average Tumor Volumes of H2122 Tumor Bearing Mice (H2122 tumors [1]; Study Day 0) [mm^3] | Average Tumor Volumes of H2122 Tumor Bearing Mice (H2122 tumors [1]; Study Day 2) [mm^3] | Average Tumor Volumes of H2122 Tumor Bearing Mice (H2122 tumors [1]; Study Day 7) [mm^3] | Average Tumor Volumes of H2122 Tumor Bearing Mice (H2122 tumors [1]; Study Day 9) [mm^3] | Average Tumor Volumes of H2122 Tumor Bearing Mice (H2122 tumors [1]; Study Day 14) [mm^3] | Average Tumor Volumes of H2122 Tumor Bearing Mice (H2122 tumors [1]; Study Day 17) [mm^3] | Average Tumor Volumes of LU99 Tumor Bearing Mice (LU99 tumors; [3]) [mm^3] | Average Tumor Volumes of LU99 Tumor Bearing Mice (LU99 tumors; [4]) [mm^3] | Average Tumor Volumes of LU99 Tumor Bearing Mice (LU99 tumors; [5]) [mm^3] | Average Tumor Volumes of LU99 Tumor Bearing Mice (LU99 tumors; [6]) [mm^3] | Average Tumor Volumes of LU99 Tumor Bearing Mice (LU99 tumors; [7]) [mm^3] | Average Tumor Volumes of LU99 Tumor Bearing Mice (LU99 tumors; [8]) [mm^3] | tumor growth inhibition (SW1573 tumors) [%] | Average Tumor Volumes of SW1573 Tumor Bearing Mice (SW1573 tumors; Study Day 0) [mm^3] | Average Tumor Volumes of SW1573 Tumor Bearing Mice (SW1573 tumors; Study Day 3) [mm^3] | Average Tumor Volumes of SW1573 Tumor Bearing Mice (SW1573 tumors; Study Day 7) [mm^3] | Average Tumor Volumes of SW1573 Tumor Bearing Mice (SW1573 tumors; Study Day 10) [mm^3] | Average Tumor Volumes of SW1573 Tumor Bearing Mice (SW1573 tumors; Study Day 13) [mm^3] | Average Tumor Volumes of SW1573 Tumor Bearing Mice (SW1573 tumors; Study Day 17) [mm^3] | also measured
CNS(=O)(=O)Nc1nccc(Cc2c(C)c3ccc(Oc4ncccn4)cc3oc2=O)c1F [RO5126766, 3-[[3-fluoro-2-(methylsulfamoylamino)pyridin-4-yl]methyl]-4-methyl-7-pyrimidin-2-yloxychromen-2-one, reference compound] | 59 | 212.4101 | 327.3898 | 463.4062 | 474.4923 | 504.5922 | 576.573 | 232.1134 | 247.33 | 158.14 | 126.8378 | 181.1358 | 200.6461 | 51 | 249.5609 | 280.2067 | 299.7596 | 395.0633 | 458.1809 | 469.133 | Average Tumor Volumes of H2122 Tumor Bearing Mice (H2122 tumors [1]; Study Day 21): 772.6155 mm^3; tumor regression (LU99 tumors; LU99 tumors, at Day 18, RO5126766 0.3 mg/kg, Compound 478 30 mg/kg p.o. daily): 12%; Average Tumor Volumes of SW1573 Tumor Bearing Mice (SW1573 tumors; Study Day 20): 480.1852 mm^3
C=C(F)C(=O)N1CCN(c2nc(OC[C@@H]3CCCN3C)nc3c2CCN(c2cccc4cccc(Cl)c24)C3)C[C@@H]1CC#N [Compound 478] | 91 | 213.447 | 229.5648 | 285.0973 | 326.5344 | 319.1401 | 378.2042 | 228.8452 | 282.5161 | 219.8962 | 252.5981 | 416.0955 | 495.1032 | 52 | 145.1243 | 201.0648 | 253.1608 | 365.7683 | 394.367 | 486.729 | tumor growth regression (H2122 tumors [2]; H2122 tumors, day not given, Compound 478 100 mg/kg p.o. daily): 12%; Average Tumor Volumes of H2122 Tumor Bearing Mice (H2122 tumors [2]; Study Day 1, p.o. daily): 315 mm^3; Average Tumor Volumes of H2122 Tumor Bearing Mice (H2122 tumors [2]; Study Day 7, p.o. daily): 233 mm^3; Average Tumor Volumes of H2122 Tumor Bearing Mice (H2122 tumors [2]; Study Day 21, p.o. daily): 270 mm^3; Average Tumor Volumes of H2122 Tumor Bearing Mice (H2122 tumors [2]; Study Day 24, p.o. daily): 254 mm^3; Average Tumor Volumes of H2122 Tumor Bearing Mice (H2122 tumors [2]; Study Day 32, p.o. daily): 287 mm^3; Average Tumor Volumes of H2122 Tumor Bearing Mice (H2122 tumors [2]; Study Day 35, p.o. daily): 305 mm^3; Average Tumor Volumes of H2122 Tumor Bearing Mice (H2122 tumors [2]; Study Day 38, p.o. daily): 324 mm^3; Average Tumor Volumes of H2122 Tumor Bearing Mice (H2122 tumors [2]; Study Day 42, p.o. daily): 353 mm^3; Average Tumor Volumes of H2122 Tumor Bearing Mice (H2122 tumors [2]; Study Day 45, p.o. daily): 378 mm^3; Average Tumor Volumes of H2122 Tumor Bearing Mice (H2122 tumors [2]; Study Day 49, p.o. daily): 337 mm^3; Average Tumor Volumes of H2122 Tumor Bearing Mice (H2122 tumors [2]; Study Day 56, p.o. daily, dosing stopped on day 56): 371 mm^3; Average Tumor Volumes of H2122 Tumor Bearing Mice (H2122 tumors [2]; Study Day 63, after dosing stopped on day 56): 542 mm^3; Average Tumor Volumes of H2122 Tumor Bearing Mice (H2122 tumors [2]; Study Day 70, after dosing stopped on day 56): 802 mm^3; Average Tumor Volumes of H2122 Tumor Bearing Mice (H2122 tumors [2]; Study Day 77, after dosing stopped on day 56): 1073 mm^3; Average Tumor Volumes of H2122 Tumor Bearing Mice (H2122 tumors [2]; Study Day 85, after dosing stopped on day 56): 1294 mm^3; tumor growth inhibition (LU99 tumors; LU99 tumors, Day 18, Compound 478 30 mg/kg p.o. daily): 81%; Average Tumor Volumes of SW1573 Tumor Bearing Mice (SW1573 tumors; Study Day 20): 534.3942 mm^3
CC(=O)Nc1cccc(-n2c(=O)n(C3CC3)c(=O)c3c(Nc4ccc(I)cc4F)n(C)c(=O)c(C)c32)c1 [Trametinib, N-(3-(3-cyclopropyl-5-((2-fluoro-4-iodophenyl)amino)-6,8-dimethyl-2,4,7-trioxo-3,4,6,7-tetrahydropyrido[4,3-d]pyrimidin-1 (2H)-yl)phenyl) acetamide, reference compound] | – | – | – | – | – | – | – | – | – | – | – | – | – | – | – | – | – | – | – | – | tumor growth inhibition (H2122 tumors [2]; H2122 tumors, at Day 32, trametinib 1 mg/kg p.o. daily): 60%; Average Tumor Volumes of H2122 Tumor Bearing Mice (H2122 tumors [2]; Study Day 1, p.o. daily): 301 mm^3; Average Tumor Volumes of H2122 Tumor Bearing Mice (H2122 tumors [2]; Study Day 3, p.o. daily): 385 mm^3; Average Tumor Volumes of H2122 Tumor Bearing Mice (H2122 tumors [2]; Study Day 7, p.o. daily): 447 mm^3; Average Tumor Volumes of H2122 Tumor Bearing Mice (H2122 tumors [2]; Study Day 10, p.o. daily): 462 mm^3; Average Tumor Volumes of H2122 Tumor Bearing Mice (H2122 tumors [2]; Study Day 15, p.o. daily): 534 mm^3; Average Tumor Volumes of H2122 Tumor Bearing Mice (H2122 tumors [2]; Study Day 17, p.o. daily): 582 mm^3; Average Tumor Volumes of H2122 Tumor Bearing Mice (H2122 tumors [2]; Study Day 21, p.o. daily): 667 mm^3; Average Tumor Volumes of H2122 Tumor Bearing Mice (H2122 tumors [2]; Study Day 24, p.o. daily): 778 mm^3; Average Tumor Volumes of H2122 Tumor Bearing Mice (H2122 tumors [2]; Study Day 28, p.o. daily): 673 mm^3; Average Tumor Volumes of H2122 Tumor Bearing Mice (H2122 tumors [2]; Study Day 32, p.o. daily): 816 mm^3
